Results taken from paper PMC11243058, “Identification of Novel Isatin Derivative Bearing a Nitrofuran Moiety as Potent Multi-Isoform Aldehyde Dehydrogenase Inhibitor” (Molecules, 2024).
Like-named read-outs stand apart in the source and are kept apart here. Blank lines part the entries; values can stand above or below the compound they belong to.

What was measured:
[1] = test system: SKOV-3; assay: Cell viability assay (MTS), SKOV-3; assay type: cell-based, human; settings: Homo sapiens, SK-OV-3, ovarian cancer cells, 48 h, mean ± SD
Experimental: (§1) Five thousand cells/well were plated in 96-well plates in growth media and left for attachment for 24 h. The cells were then treated with the respective compounds using varying concentrations for 48 h. At the end of the treatment duration, a solution of MTS [3-(4,5-dimethylthiazol-2-yl)-5-(3-carboxymethoxyphenyl)-2-(4-sulfophenyl)-2H-tetrazolium] and an electron coupling reagent, PES (phenazine ethosulfate) (Promega, Madison, WI, USA) was added to the cells. Then, 15 μL of MTS reagent was added to each well, and the absorbance was assessed at 490 nm with a microplate reader (Dynex Technologies, MRX Revelation; Chantilly, VA, USA) after 1 h incubation with MTS. The data were recorded, and the IC50 value was calculated using non-linear curve regression analysis (Graph pad V8.0, CA, USA).

[2] = test system: MiaPaCa-2; assay: Cell viability assay (MTS), MiaPaCa-2; assay type: cell-based, human; settings: Homo sapiens, MIA PaCa-2, pancreatic cancer cells, 48 h, mean ± SD
Experimental: as §1

[3] = test system: HCT-116; assay: Cell viability assay (MTS), HCT-116; assay type: cell-based, human; settings: Homo sapiens, HCT-116, colon cancer cells, 48 h, mean ± SD
Experimental: as §1

[4] = test system: HEK-293; assay: Cell viability assay (MTS), HEK-293; assay type: cell-based; settings: HEK293, human embryonic kidney cells, 48 h, mean ± SD
Experimental: as §1

[5] = test system: FHC; assay: Cell viability assay (MTS), FHC; assay type: cell-based; settings: FHC, normal fetal human cells, 48 h, mean ± SD
Experimental: as §1

[6] = test system: SKOV-3, MiaPaCa-2, HCT-116, HEK-293, and FHC cell lines; assay: Cell viability assay (MTS), statements over the cell line panel; assay type: cell-based, human; settings: for IC50 / cytotoxicity against the tested cell lines: range or statement over all tested cell lines; for IC50: Homo sapiens, Pancreatic cancer cell, read-out: IC50 in cancer cell lines
Experimental: as §1

[7] = ovarian, colon, and pancreatic cancer cells, 48 h MTS

SMILES: Br.COc1ccc2c(c1)C(=O)C(=O)N2Cc1ccc(CSC(=N)N)cc1 [Compound 6, 4-((5-Methoxy-2,3-dioxoindolin-1-yl)methyl)benzyl carbamimidothioate hydrobromide]
- IC50 [1]: 45 ± 2.5 µM
- IC50 [2]: > 50 µM
- IC50 [3]: > 50 µM
- IC50 [4]: > 50 µM
- IC50 [5]: > 50 µM
- IC50 / cytotoxicity against the tested cell lines ([6]; 48 h MTS): inert
- melting point: 214 to 216 °C

SMILES: Br.C=CCNC(=N)SCc1ccc(CN2C(=O)C(=O)c3cc(C(F)(F)F)ccc32)cc1 [Compound 7, 4-((2,3-Dioxo-5-(trifluoromethyl)indolin-1-yl)methyl)benzyl allylcarbamimidothioate hydrobromide]
- IC50 [1]: 9.1 ± 1.3 µM
- IC50 [2]: 10.3 ± 2.4 µM
- IC50 [3]: 12 ± 3.1 µM
- IC50 [4]: 9.7 ± 1.1 µM
- IC50 [5]: 8.1 ± 0.8 µM
- IC50 / cytotoxicity against the tested cell lines ([6]; 48 h MTS): less cytotoxic than KS100
- melting point: 122 to 124 °C

- IC50 [1]: > 50 µM
- IC50 [2]: > 50 µM
- IC50 [3]: > 50 µM
SMILES: COC(=O)/C=C/c1ccc(Cn2ncc3cc(C(F)(F)F)ccc32)cc1 [Compound 8, Methyl (E)-3-(4-((5-(trifluoromethyl)-1H-indazol-1-yl)methyl)phenyl)acrylate]
- IC50 [4]: > 50 µM
- IC50 [5]: > 50 µM
- IC50 [6, 7]: > 50 µM

- IC50 [1]: > 50 µM
- IC50 [2]: > 50 µM
- IC50 [3]: > 50 µM
SMILES: COC(=O)/C=C/c1ccc(Cn2cc3cc(C(F)(F)F)ccc3n2)cc1 [Compound 9, Methyl (E)-3-(4-((5-(trifluoromethyl)-2H-indazol-2-yl)methyl)phenyl)acrylate]
- IC50 [4]: > 50 µM
- IC50 [5]: > 50 µM
- IC50 [6, 7]: > 50 µM

SMILES: Br.C=CCNC(=N)SCc1ccc(Cn2ncc3cc(C(F)(F)F)ccc32)cc1 [Compound 10, 4-((5-(Trifluoromethyl)-1H-indazol-1-yl)methyl)benzyl allylcarbamimidothioate hydrobromide]
- IC50 [1]: > 50 µM
- IC50 [2]: 48.4 ± 3.2 µM
- IC50 [3]: > 50 µM
- IC50 [4]: > 50 µM
- IC50 [5]: > 50 µM
- IC50 ([6]; 48 h): > 50 µM
- melting point: 104 to 106 °C

SMILES: Br.C=CCNC(=N)SCc1ccc(Cn2cc3cc(C(F)(F)F)ccc3n2)cc1 [Compound 11, 4-((5-(Trifluoromethyl)-2H-indazol-2-yl)methyl)benzyl allylcarbamimidothioate hydrobromide]
- IC50 [1]: > 50 µM
- IC50 [2]: > 50 µM
- IC50 [3]: > 50 µM
- IC50 [4]: > 50 µM
- IC50 [5]: > 50 µM
- IC50 ([6]; 48 h): > 50 µM
- melting point: 105 to 107 °C

SMILES: Br.N=C(N)SCc1ccc(Cn2cc3cc(C(F)(F)F)ccc3n2)cc1 [Compound 13, 4-((5-(Trifluoromethyl)-2H-indazol-2-yl)methyl)benzyl carbamimidothioate hydrobromide]
- IC50 [1]: 22.7 ± 2.3 µM
- IC50 [2]: 33.2 ± 4.4 µM
- IC50 [3]: 18.2 ± 3.1 µM
- IC50 [4]: 18.9 ± 5.1 µM
- IC50 [5]: 14.4 ± 2.3 µM
- IC50 ([6]; 48 h): 4.7 to 33 µM
- melting point: 181 to 183 °C

SMILES: Br.N=C(N)SCc1ccc(Cn2ncc3cccc(C(F)(F)F)c32)cc1 [Compound 14, 4-((7-(Trifluoromethyl)-1H-indazol-1-yl)methyl)benzyl carbamimidothioate hydrobromide]
- IC50 [1]: 16.8 ± 3.5 µM
- IC50 [2]: 12.3 ± 2.7 µM
- IC50 [3]: 14.2 ± 2.3 µM
- IC50 [4]: 17.7 ± 3.7 µM
- IC50 [5]: 29.3 ± 4.9 µM
- melting point: 206 to 208 °C

SMILES: Br.N=C(N)SCc1ccc(Cn2cc3cccc(C(F)(F)F)c3n2)cc1 [Compound 15, 4-((7-(Trifluoromethyl)-2H-indazol-2-yl)methyl)benzyl carbamimidothioate hydrobromide]
- IC50 [1]: > 50 µM
- IC50 [2]: > 50 µM
- IC50 [3]: > 50 µM
- IC50 [4]: > 50 µM
- IC50 [5]: > 50 µM
- IC50 ([6]; 48 h): > 50 µM
- melting point: 195 to 197 °C

SMILES: Br.COc1ccc2c(c1)c(Br)nn2Cc1ccc(CSC(=N)N)cc1 [Compound 18, 4-((3-Bromo-5-methoxy-1H-indazol-1-yl)methyl)benzyl carbamimidothioate hydrobromide]
- IC50 [1]: 42.2 ± 5.8 µM
- IC50 [2]: 44.6 ± 3.7 µM
- IC50 [3]: 39.2 ± 3.9 µM
- IC50 [4]: > 50 µM
- IC50 [5]: > 50 µM
- IC50 ([6]; 48 h): > 50 µM
- melting point: 171 to 173 °C

- IC50 [1]: > 50 µM
- IC50 [2]: > 50 µM
- IC50 [3]: > 50 µM
SMILES: OCc1ccc(Cn2nc(Br)c3cc(C(F)(F)F)ccc32)cc1 [Compound 19, (4-((3-Bromo-5-(trifluoromethyl)-1H-indazol-1-yl)methyl)phenyl)methanol]
- IC50 [4]: > 50 µM
- IC50 [5]: > 50 µM
- IC50 [6, 7]: > 50 µM

- IC50 [1]: > 50 µM
- IC50 [2]: > 50 µM
- IC50 [3]: > 50 µM
SMILES: O=Cc1ccc(Cn2nc(Br)c3cc(C(F)(F)F)ccc32)cc1 [Compound 20, 4-((3-Bromo-5-(trifluoromethyl)-1H-indazol-1-yl)methyl)benzaldehyde]
- IC50 [4]: > 50 µM
- IC50 [5]: > 50 µM
- IC50 [6, 7]: > 50 µM

SMILES: CN(C)CCC(=O)c1ccc(Cn2nc(Br)c3cc(C(F)(F)F)ccc32)cc1.Cl [Compound 21, 1-(4-((3-Bromo-5-(trifluoromethyl)-1H-indazol-1-yl)methyl)phenyl)-3-(dimethylamino)propan-1-one hydrochloride]
- IC50 [1]: > 50 µM
- IC50 [2]: > 50 µM
- IC50 [3]: > 50 µM
- IC50 [4]: > 50 µM
- IC50 [5]: > 50 µM
- IC50 ([6]; 48 h): > 50 µM
- melting point: 171 to 173 °C
